For 17 compounds, IC50 results are on record in ChEMBL document CHEMBL5729568, “Ras inhibitors” (2023).

Structures are written as SMILES. pIC50: −log10 of the molar value.

Assay [1] in a line: (§1) Biochemical Assay: A variety of Ras proteins may be inhibited by compounds of the present invention (e.g., K-Ras, N-Ras, H-Ras, and mutants thereof at positions 12, 13 and 61, such as G12C, G12D, G12V, G12S, G13C, G13D, and Q61L, and others described herein). The purpose of this biochemical assay is to measure the ability of test compounds to covalently label nucleotide-loaded K-Ras isoforms. […] The sample is incubated at 25? C. for a time period of up to 24 hours prior to quenching by the addition of 10 uL of 5% Formic Acid. Quenched samples are centrifuged at 15000 rpm for 15 minutes in a benchtop centrifuge before injecting a 10 uL aliquot onto a reverse phase C4 column and eluting into the mass spectrometer with an increasing acetonitrile gradient in the mobile phase. Analysis of raw data may be carried out using Waters MassLynx MS software, with % bound calculated from the deconvoluted protein peaks for labeled and unlabeled K-Ras.

The nature of assay [2]: as §1. The source holds these as a separate data set.
A short description of assay [3]: as §1. The source holds these as a separate data set.
Assay [4] in a line: as §1. This is another data set of the same source.
Assay [5] in a line: as §1. This is another data set of the same source.
Assay [6] in a line: as §1. The source holds these as a separate data set.
A short description of assay [7]: as §1. The source holds these as a separate data set.

Consider `COC(C)c1ncccc1-c1c2c3cc(ccc3n1CC(F)(F)F)-c1cccc(c1)CN(NC(=O)[C@@H](COC1CN(C(=O)C#CC(C)(C)N(C)C)C1)C(C)C)C(=O)N1CCC[C@H](N1)C(=O)OCC(C)(C)C2` (some centres undefined), for which the IC50 – broadly, the point on the concentration scale where inhibition reaches its midpoint – in assay [1] is “in the range around 5.5 µM”; in assay [3], “in the range around 5.5 µM”; in assay [4], “in the range around 5.5 µM”; in assay [5], “in the range around 0.55 µM”; in assay [6], “in the range around 5.5 µM”; in assay [7], “in the range around 5.5 µM”. Moreover, the pIC50 (in general, −log10 of the IC50, conventionally taken in molar units) in assay [2] was > 8.00.
Consider `C=CC(=O)N1CCOC2(CCN(C(=O)N(C)[C@H](C(=O)N[C@H]3C[C@H]4CN(CCO4)c4ccc5c(c4)c(c(-c4cccnc4C(C)OC)n5CC)CC(C)(C)COC(=O)[C@@H]4CCCN(N4)C3=O)C(C)C)CC2)C1` (some centres undefined), for which the IC50 result was “in the range around 0.55 µM” in assay [1]; “in the range around 0.55 µM” in assay [2]; “in the range around 0.55 µM” in assay [3]; “in the range around 5.5 µM” in assay [4]; “in the range around 0.055 µM” in assay [5]; “in the range around 0.55 µM” in assay [6]. For the same compound, the 50% inhibitory concentration (IC50) result in assay [7] is “in the range around 5.5 µM”.
On to `CCn1c(-c2cccnc2C(C)OC)c2c3cc(ccc31)N1CCO[C@@H](C[C@H](NC(=O)[C@@H](COC3CN(C(=O)C#CC(C)(C)N(C)C)C3)C(C)C)C(=O)N3CCC[C@H](N3)C(=O)OCC(C)(C)C2)C1` (some centres undefined), for which the pIC50 in assay [1] was < 5.00; in assay [2], > 8.00; in assay [3] it was < 5.00; in assay [4] it was < 5.00; in assay [6] it was < 5.00; in assay [7] it was < 5.00. For the same compound, the IC50 result in assay [5] is “in the range around 5.5 µM”.
Take `C=CC(=O)N1CC[C@H](C(=O)N(C)[C@H](C(=O)N[C@H]2C[C@H]3CN(CCO3)c3ccc4c(c3)c(c(-c3cccnc3C(C)OC)n4CC)CC(C)(C)COC(=O)[C@@H]3CCCN(N3)C2=O)C(C)C)C1` (some centres undefined): the IC50 entry was “in the range around 5.5 µM” in assay [1], “in the range around 0.55 µM” in assay [2], “in the range around 5.5 µM” in assay [3] and “in the range around 5.5 µM” in assay [5]. Further, the pIC50 in assay [4], in assay [6] and in assay [7] was < 5.00 in each case.
For the compound `CCn1c(-c2cccnc2C(C)OC)c2c3cc(ccc31)N1CCO[C@@H](C[C@H](NC(=O)[C@@H](COC3CCN(C(=O)C#CC(C)(C)N(C)C)CC3)C(C)C)C(=O)N3CCC[C@H](N3)C(=O)OCC(C)(C)C2)C1` (some centres undefined), the negative-log IC50 (pIC50) in assay [1], in assay [3], in assay [4], in assay [6] and in assay [7] was < 5.00 in each case. Also, the results for the IC50 result in assay [2] and in assay [5] were “in the range around 0.055 µM” and “in the range around 5.5 µM”, respectively.
On to `CCn1c(-c2cccnc2C(C)OC)c2c3cc(ccc31)-c1csc(n1)C[C@H](NC(=O)CCOC1CN(C(=O)C#CC(C)(C)N(C)C)C1)C(=O)N1CCC[C@H](N1)C(=O)OCC(C)(C)C2` (some centres undefined), for which the half-inhibitory concentration (IC50) entry in assay [1] is “in the range around 5.5 µM”; in assay [3], “in the range around 5.5 µM”; in assay [4], “in the range around 5.5 µM”; in assay [5], “in the range around 5.5 µM”; in assay [6], “in the range around 5.5 µM”; in assay [7], > 10 µM and in the range around 5.5 µM. Besides, in assay [2], the pIC50 is > 8.00.
On to `C=CC(=O)Nc1cnc(OC[C@H](C(=O)N[C@H]2Cc3cccc(c3)-c3ccc4c(c3)c(c(-c3cccnc3C(C)OC)n4CC)CC(C)(C)COC(=O)[C@@H]3CCCN(N3)C2=O)C(C)C)n1C` (some centres undefined), for which the IC50 entry in assay [1] is “in the range around 5.5 µM”; in assay [3], “in the range around 5.5 µM”; in assay [4], “in the range around 5.5 µM”; in assay [5], “in the range around 0.055 µM”; in assay [6] it was “in the range around 0.55 µM”; in assay [7] it was “in the range around 5.5 µM”. Moreover, in assay [2], the pIC50 is > 8.00.
As to `CCn1c(-c2cccnc2C(C)OC)c2c3cc(ccc31)N1CCC[C@@H](C[C@H](NC(=O)[C@H](C(C)C)N(C)C(=O)[C@H]3CCN(C(=O)C#CC(C)(C)N4CCC4)C3)C(=O)N3CCC[C@H](N3)C(=O)OCC(C)(C)C2)C1` (some centres undefined), the pIC50 in assay [1], in assay [3], in assay [4], in assay [5], in assay [6] and in assay [7] was < 5.00 each time. Moreover, the IC50 result in assay [2] was “in the range around 0.055 µM”.
Take `CCn1c(-c2cccnc2C(C)OC)c2c3cc(ccc31)-c1cc(F)cc(c1)C[C@H](NC(=O)[C@@H](COC1CN(C(=O)C#CC(C)(C)N(C)C)C1)C(C)C)C(=O)N1CCC[C@H](N1)C(=O)OCC(C)(C)C2` (some centres undefined): the IC50 entry in assay [1] is “in the range around 5.5 µM”; in assay [2], “in the range around 0.055 µM”; in assay [5], “in the range around 5.5 µM”; in assay [6], “in the range around 5.5 µM”. The pIC50 in assay [3], in assay [4] and in assay [7] was < 5.00 in each case.
`C=CC(=O)N1CCO[C@H]2CN(C(=O)N(C)[C@H](C(=O)N[C@H]3C[C@H]4CN(CCO4)c4ccc5c(c4)c(c(-c4cccnc4C(C)OC)n5CC)CC(C)(C)COC(=O)[C@@H]4CCCN(N4)C3=O)C(C)C)C[C@H]21` (some centres undefined): the IC50 entry is “in the range around 5.5 µM” in assay [1]; “in the range around 0.55 µM” in assay [2]; “in the range around 5.5 µM” in assay [3]; “in the range around 5.5 µM” in assay [4]; “in the range around 0.55 µM” in assay [5]; “in the range around 5.5 µM” in assay [6]. In assay [7], the half-maximal inhibitory concentration (IC50) was > 10 µM and in the range around 5.5 µM.
Regarding `COC(C)c1ncccc1-c1c2c3cc(ccc3n1CC(F)(F)F)-c1cccc(c1)C[C@H](NC(=O)[C@@H](COC1CN(C(=O)C#CC(C)(C)N(C)C)C1)C(C)C)C(=O)N1CCC[C@H](N1)C(=O)OCC(C)(C)C2` (some centres undefined), the IC50 entry in assay [1], in assay [3], in assay [5] and in assay [6] was “in the range around 5.5 µM” in each case. Moreover, the pIC50 was > 8.00 in assay [2], < 5.00 in assay [4] and < 5.00 in assay [7].
In the case of `C=CC(=O)N1CC[C@H](C(=O)N(C)C(C(=O)N[C@H]2C[C@H]3CN(CCO3)c3ccc4c(c3)c(c(-c3cccnc3C(C)OC)n4CC)CC(C)(C)COC(=O)[C@@H]3CCCN(N3)C2=O)C(C)C)C1` (some centres undefined), the 50% inhibitory concentration (IC50) result in assay [1] was “in the range around 5.5 µM”; in assay [2], “in the range around 0.55 µM”; in assay [3] it was “in the range around 5.5 µM”; in assay [5], “in the range around 5.5 µM”. For the same compound, the pIC50 in assay [4], in assay [6] and in assay [7] was < 5.00 throughout.
Consider `C=CC(=O)Nc1ncc(C(=O)N(C)[C@H](C(=O)N[C@H]2Cc3cccc(c3)-c3ccc4c(c3)c(c(-c3cccnc3C(C)OC)n4CC)CC(C)(C)COC(=O)[C@@H]3CCCN(N3)C2=O)C(C)C)n1C` (some centres undefined), for which the IC50 result was “in the range around 5.5 µM” in assay [1]; “in the range around 5.5 µM” in assay [3]; “in the range around 5.5 µM” in assay [4]; “in the range around 0.55 µM” in assay [6]; “in the range around 5.5 µM” in assay [7]. Also, the pIC50 in assay [2] and in assay [5] was > 8.00 in each case.
For the compound `C=CC(=O)N1CCO[C@H]2CN(C(=O)N(C)[C@H](C(=O)N[C@H]3Cc4cc(C(F)F)cc(n4)-c4ccc5c(c4)c(c(-c4cccnc4C(C)OC)n5CC(F)(F)F)CC(C)(C)COC(=O)[C@@H]4CCCN(N4)C3=O)C(C)C)C[C@H]21` (some centres undefined), the IC50 entry in assay [1] was “in the range around 5.5 µM”; in assay [2], “in the range around 0.55 µM”; in assay [3], “in the range around 5.5 µM”; in assay [4], “in the range around 5.5 µM”; in assay [5] it was “in the range around 0.055 µM”; in assay [6], “in the range around 0.55 µM”. Also, the IC50 entry in assay [7] is “in the range around 5.5 µM”.
For the compound `CCn1c(-c2cccnc2C(C)OC)c2c3cc(ccc31)N1CCO[C@@H](C[C@H](NC(=O)[C@H](C(C)C)N(C)C(=O)C3(F)CCN(C(=O)/C=C/CN(C)C)CC3)C(=O)N3CCC[C@H](N3)C(=O)OCC(C)(C)C2)C1` (some centres undefined), the IC50 entry in assay [1] is “in the range around 5.5 µM”; in assay [2], “in the range around 0.055 µM”; in assay [3], “in the range around 5.5 µM”; in assay [4], “in the range around 5.5 µM”; in assay [5], “in the range around 0.55 µM”; in assay [6], “in the range around 5.5 µM”. Further, the pIC50 in assay [7] was < 5.00.
For the compound `CCn1c(-c2cccnc2C(C)OC)c2c3cc(ccc31)-c1cccc(c1)C[C@H](NC(=O)[C@@H](COC1CN(C(=O)C#C[C@H]3COCCN3C)C1)C(C)C)C(=O)N1CCC[C@H](N1)C(=O)OCC(C)(C)C2` (some centres undefined), the pIC50 in assay [1], in assay [3], in assay [4], in assay [6] and in assay [7] was < 5.00 each time. Moreover, the half-maximal inhibitory concentration (IC50) result in assay [2] is “in the range around 0.055 µM”; in assay [5], “in the range around 5.5 µM”.
As for `C=CC(=O)N1CCOC2(CCN(C(=O)N(C)[C@H](C(=O)N[C@H]3Cc4cc(CF)cc(c4)-c4ccc5c(c4)c(c(-c4cccnc4C(C)OC)n5CC(F)(F)F)CC(C)(C)COC(=O)[C@@H]4CCCN(N4)C3=O)C(C)C)CC2)C1` (some centres undefined), the IC50 result is “in the range around 0.55 µM” in assay [1]; “in the range around 0.55 µM” in assay [2]; “in the range around 0.55 µM” in assay [3]; “in the range around 0.55 µM” in assay [4]; “in the range around 0.055 µM” in assay [5]; “in the range around 0.055 µM” in assay [6]. The IC50 entry in assay [7] was “in the range around 0.55 µM”.
